Data on 2 compounds can be found in article PMC7979765, “trans-Translation inhibitors bind to a novel site on the ribosome and clear Neisseria gonorrhoeae in vivo” (Nature Communications, 2021).

“And” between values parts separate entries of the source, which are not always exact repeats. Identical values can stand only once. Like-named read-outs stand apart in the source and are kept apart here.

A word on the CC50: it is the concentration giving 50% cytotoxicity. For orientation: MIC means the lowest concentration found to suppress growth.

Data set [1] in a line: Mammalian cell cytotoxicity (CC50). The format is cell-based, human. Particulars: human, HeLa cells (ATCC CCL-2). As to the method: (§1) The half maximal cytotoxic concentration (CC50) of each compound against HeLa cells (ATCC CCL-2) was measured as previously described. […] The mean values for each biological replicate were averaged, and the CC50 was determined using a 4-parameter nonlinear curve fitting algorithm (GraphPad Prism). The average of the CC50s from two biological replicates was calculated and reported.

For another data set, the system named is HeLa cells. The experiment in a line: Mammalian cell cytotoxicity (CC50). In kind it is cell-based, human. Particulars: for CC50: HeLa cytotoxicity; for NORMALIZED DATA (Fraction DMSO Control) / […] (Fraction DMSO Control): HeLa. On the procedure:
as §1

The next data set concerns Acinetobacter baumannii. The data set can be described thus: MIC, microbroth dilution. In kind it is cell-based. In general terms: In broth dilution the organism is exposed to a series of concentrations in liquid medium.
Data set [2] is described as follows: Pharmacokinetic analyses in mice (PO suspension, IV, SC). In kind it is in vivo, mouse. As to the method:
Female CD-1 mice as above were fasted for 2 h prior, and 4 h after dosing. […] […], 3 mice from each group were euthanized by CO2 inhalation, blood was collected by cardiac puncture into K2EDTA collection tubes, and protein was precipitated and analysed by LC/MS-MS for plasma concentrations of MBX-4132. Data were analysed using WinNonLin.
[…] At 0.083, 0.5, 1, 4, 8 and 24 h post dose, blood was collected from 3 mice/group by tail vein or facial bleed into K2EDTA collection tubes, and protein was precipitated and analysed by LC/MS-MS for plasma concentrations of MBX-4132. Sampling was performed serially, with each mouse contributing sample at all time points. Data were analysed using WinNonLin.

Where [3] appears, read: half-maximal cytotoxic concentration against HeLa cells.
Setting [4] is: Acinetobacter baumannii ATCC 19606, replicates.
[5] abbreviates: Acinetobacter baumannii, ATCC19606, Acinetobacter baumannii ATCC 19606, replicates, read-out: MIC.
Where [6] appears, read: Acinetobacter baumannii, ATCC19606, strain ATCC 19606, read-out: MIC.

`O=C(Nc1nnc(-c2ccc(F)cc2)o1)c1ccc(Cl)cc1` [KKL-35, 4-chloro-N-(5-(4-fluorophenyl)-1,3,4-oxadiazol-2-yl)benzamide]: the CC50 in data set [1] (HeLa cytotoxicity, one value per replicate) was 30.5 µM; in data set [1] (setting [3]) it was greater than 100 µM; in the data set on HeLa cells (one value per replicate, listed as MBX-3535), 30.6 µM and 26 µM and 22 µM and 29.1 µM and 34.1 µM. For the same compound, the “NORMALIZED DATA (Fraction DMSO Control)” value in the data set with HeLa cells ([CMPD] 0.78125 µM, replicates, listed as MBX-3535) is 0.9983 Fraction DMSO Control and 0.9009 Fraction DMSO Control and 0.8841 Fraction DMSO Control and 1.049 Fraction DMSO Control and 0.992 Fraction DMSO Control and 0.9968 Fraction DMSO Control; in the data set with HeLa cells ([CMPD] 1.5625 µM, replicates, listed as MBX-3535) it was 0.9916 Fraction DMSO Control and 0.9029 Fraction DMSO Control and 0.888 Fraction DMSO Control and 1.05 Fraction DMSO Control and 0.9984 Fraction DMSO Control and 0.9932 Fraction DMSO Control; in the data set on HeLa cells ([CMPD] 3.125 µM, replicates, listed as MBX-3535), 0.9963 Fraction DMSO Control and 0.9267 Fraction DMSO Control and 0.8661 Fraction DMSO Control and 1.071 Fraction DMSO Control and 1.023 Fraction DMSO Control and 1.002 Fraction DMSO Control; in the data set on HeLa cells ([CMPD] 6.25 µM, replicates, listed as MBX-3535), 1.002 Fraction DMSO Control and 0.9334 Fraction DMSO Control and 0.856 Fraction DMSO Control and 1.09 Fraction DMSO Control and 1.008 Fraction DMSO Control and 1.022 Fraction DMSO Control; with HeLa cells ([CMPD] 12.5 µM, replicates, listed as MBX-3535) it was 0.9694 Fraction DMSO Control and 0.9248 Fraction DMSO Control and 0.8736 Fraction DMSO Control and 1.069 Fraction DMSO Control and 1.012 Fraction DMSO Control and 1.014 Fraction DMSO Control; with HeLa cells ([CMPD] 25 µM, replicates, listed as MBX-3535), 0.8994 Fraction DMSO Control and 0.8509 Fraction DMSO Control and 0.795 Fraction DMSO Control and 0.4926 Fraction DMSO Control and 0.6416 Fraction DMSO Control and 0.799 Fraction DMSO Control. Also, the “NORMALIZED DATA (Fraction DMSO Control)” value with HeLa cells ([CMPD] 50 µM, replicates, listed as MBX-3535) was 0.6292 Fraction DMSO Control and 0.6178 Fraction DMSO Control and 0.5987 Fraction DMSO Control and 0.3592 Fraction DMSO Control and 0.3855 Fraction DMSO Control and 0.3659 Fraction DMSO Control; in the data set with HeLa cells ([CMPD] 100 µM, replicates, listed as MBX-3535), 0.6116 Fraction DMSO Control and 0.6041 Fraction DMSO Control and 0.6139 Fraction DMSO Control and 0.191 Fraction DMSO Control and 0.1882 Fraction DMSO Control and 0.2089 Fraction DMSO Control. For the same compound, the MIC in the data set on Acinetobacter baumannii (setting [4]) was no less than 32 µg/mL; in the data set with Acinetobacter baumannii (setting [5]) it was no less than 32 µg/mL; in the data set on Acinetobacter baumannii (setting [6]), greater than 32 µg/mL.

Take `O=C(Nc1nnc(-c2ccc(F)cc2)o1)N1CCc2ccccc2C1` [MBX-4132]: the “oral bioavailability (in words)” value in data set [2] (mice) is given as “highly orally bioavailable”. In addition, in data set [2] (plasma at 1 and 4 h post dosing, formulation A), the “exposure in fasted vs fed mice (in words)” value is “No significant variation in exposure”. Further, the CC50 in data set [1] (HeLa cytotoxicity, value per replicate) was 22.2 µM; in data set [1] (setting [3]), 45 µM; with HeLa cells (value per replicate) it was 40.1 µM and 36.3 µM and 20.1 µM and 22.1 µM and 22.6 µM. For the same compound, the “NORMALIZED DATA (Fraction DMSO Control)” value in the data set with HeLa cells ([CMPD] 0.78125 µM, per replicate) was 0.9968 Fraction DMSO Control and 1.046 Fraction DMSO Control and 1.033 Fraction DMSO Control and 0.9287 Fraction DMSO Control and 0.9308 Fraction DMSO Control and 0.9008 Fraction DMSO Control; with HeLa cells ([CMPD] 1.5625 µM, per replicate) it was 0.97 Fraction DMSO Control and 0.9994 Fraction DMSO Control and 0.9978 Fraction DMSO Control and 0.9354 Fraction DMSO Control and 0.9201 Fraction DMSO Control and 0.9227 Fraction DMSO Control; in the data set on HeLa cells ([CMPD] 3.125 µM, per replicate), 0.9272 Fraction DMSO Control and 0.9885 Fraction DMSO Control and 0.9744 Fraction DMSO Control and 0.9295 Fraction DMSO Control and 0.9174 Fraction DMSO Control and 0.8829 Fraction DMSO Control; in the data set with HeLa cells ([CMPD] 6.25 µM, per replicate), 0.9057 Fraction DMSO Control and 0.9944 Fraction DMSO Control and 0.9769 Fraction DMSO Control and 0.8719 Fraction DMSO Control and 0.9166 Fraction DMSO Control and 0.9146 Fraction DMSO Control; in the data set with HeLa cells ([CMPD] 12.5 µM, per replicate), 0.7347 Fraction DMSO Control and 0.9472 Fraction DMSO Control and 1.04 Fraction DMSO Control and 0.6999 Fraction DMSO Control and 0.7003 Fraction DMSO Control and 0.7354 Fraction DMSO Control; in the data set with HeLa cells ([CMPD] 25 µM, per replicate) it was 0.4205 Fraction DMSO Control and 0.7028 Fraction DMSO Control and 0.4452 Fraction DMSO Control and 0.4899 Fraction DMSO Control and 0.486 Fraction DMSO Control. In addition, the “NORMALIZED DATA (Fraction DMSO Control)” value with HeLa cells ([CMPD] 50 µM, per replicate) was 0.4043 Fraction DMSO Control and 0.3802 Fraction DMSO Control and 0.2112 Fraction DMSO Control and 0.1979 Fraction DMSO Control; with HeLa cells ([CMPD] 100 µM, per replicate), 0.2429 Fraction DMSO Control and 0.2248 Fraction DMSO Control and 0.2297 Fraction DMSO Control. The “[…] (Fraction DMSO Control)” value with HeLa cells ([CMPD] 25 µM, per replicate) was 0.7319 Fraction DMSO Control; in the data set with HeLa cells ([CMPD] 50 µM, per replicate), 0.2642 Fraction DMSO Control and 0.1957 Fraction DMSO Control; in the data set with HeLa cells ([CMPD] 100 µM, per replicate) it was 0.1038 Fraction DMSO Control and 0.3131 Fraction DMSO Control and 0.2661 Fraction DMSO Control. The MIC against Acinetobacter baumannii (setting [4]), in the data set with Acinetobacter baumannii (setting [5]) and with Acinetobacter baumannii (setting [6]) was no less than 34 µg/mL throughout.
